The values that follow are results of earlier work, collected in patent publication US20080095722A1, “Extended Surface Aggregates in the Treatment of Skin Conditions” (IDEA AG, priority 2004, published 2008).

Where two headings read alike, the source gives them in different places.

For series [1], the system named is melanocytes. Conditions: cell cultures, cited from earlier work.
In series [2] the test system is erythema. To be noted: gel base or alcoholic solution; cited from earlier work.

On to `CC(=O)Oc1ccccc1C(=O)O` [acetylsalicylic acid], for which the effect on melanocytes entry was “stimulate melanocytes” in series [1] (low concentrations) and “may cause melanocyte apoptosis” in series [1] (very high concentrations). For `COc1ccc2c(c1)c(CC(=O)O)c(C)n2C(=O)c1ccc(Cl)cc1` [indomethacin], in series [2], the “inhibition of the appearance of erythema” value is recorded as “some inhibition of the appearance of erythema”.
